Values of other authors, collected in patent US20240100062A1, “Methods of Treatment With an Iboga Alkaloid” (priority 2022, published 2024).

Assays:
[1] = in vivo; cited from earlier work
[2] = system: N-methyl-D-aspartate, kappa and mu opioid, sigma-1 and -2, nicotinic acetylcholine, serotonin transporter, and dopamine transporter; details: cited from earlier work

**Q.** Which results are given for Noribogaine?
**A.** half-life [1]: 28 to 49 h; Affinity for neurotransmitter receptors [2]: moderate-to-weak affinity
